Source: patent US10765114B2, “4-amino-6-(pyridyl and 2-substitutedphenyl)-picolinates and 6-amino-2-(pyridyl and 2-substitutedphenyl)-pyrimidine-4-carboxylates and their use as herbicides” (Dow AgroSciences LLC, priority 2013, dated 2020)
Where two headings read alike, the source gives them in different places.

Legend:
[1] = system: Key Broadleaf Weed and Crop Species; test: Post-Emergent Test II (Table 5); type: in vivo; settings: post-emergence, 336 h; for pest or weed control at 70 g/ha: application rate 70 (kg ai/ha; footnote: g ai/ha); for pest or weed control at 140 g/ha: application rate 140 (kg ai/ha; footnote: g ai/ha)
How it was run: (§1)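 Growth stage at treatment: first or second true leaf. Application: compound in acetone/DMSO diluted into an adjuvant-containing aqueous mix, sprayed at 187 L/ha at several rates. Assessment: visual 0-100% injury at 14 days against untreated plants.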

[2] = system: Key Grass and Sedge Weeds as well as Grass Crops; test: Post-Emergent Test II (Table 6); type: in vivo; settings: post-emergence, 336 h, 14 days after application; for pest or weed control at 70 g/ha: 70 g ai/ha; for pest or weed control at 140 g/ha: 140 g ai/ha
How it was run: as §1

[3] = Abutilon theophrasti, ABUTH: velvetleaf (Abutilon theophrasti), read-out: Visual Growth Reduction (%) 14 Days After Application ABUTH
[4] = Amaranthus retroflexus, AMARE: redroot pigweed (Amaranthus retroflexus), read-out: Visual Growth Reduction (%) 14 Days After Application AMARE
[5] = Brassica napus, BRSSS: oilseed rape, canola (Brassica napus), read-out: Visual Growth Reduction (%) 14 Days After Application BRSSS
[6] = Chenopodium album, CHEAL: lambsquarters (Chenopodium album), read-out: Visual Growth Reduction (%) 14 Days After Application CHEAL
[7] = Euphorbia heterophylla, EPHHL: wild poinsettia (Euphorbia heterophylla), read-out: Visual Growth Reduction (%) 14 Days After Application EPHHL
[8] = Helianthus annuus, HELAN: sunflower (Helianthus annuus), read-out: Visual Growth Reduction (%) 14 Days After Application HELAN
[9] = Viola tricolor, VIOTR: wild pansy (Viola tricolor), read-out: Visual Growth Reduction (%) 14 Days After Application VIOTR
[10] = CYPSS, read-out: Visual Growth Reduction (%) 14 Days After Application CYPSS
[11] = DIGSA: crabgrass (Digitaria sanguinalis), read-out: Visual Growth Reduction (%) 14 Days After Application DIGSA
[12] = ECHSS, read-out: Visual Growth Reduction (%) 14 Days After Application ECHSS
[13] = ORYSS (crop), read-out: Visual Growth Reduction (%) 14 Days After Application ORYSS
[14] = SETFA: giant foxtail (Setaria faberi), read-out: Visual Growth Reduction (%) 14 Days After Application SETFA
[15] = SORVU: grain sorghum (Sorghum vulgare), read-out: Visual Growth Reduction (%) 14 Days After Application SORVU
[16] = TRZSS (crop), read-out: Visual Growth Reduction (%) 14 Days After Application TRZSS
[17] = ZEAMX: maize, corn (Zea mays), read-out: Visual Growth Reduction (%) 14 Days After Application ZEAMX

SMILES | pest or weed control at 70 g/ha [1, 3] [%] | pest or weed control at 140 g/ha [1, 3] [%] | pest or weed control at 70 g/ha [1, 4] [%] | pest or weed control at 140 g/ha [1, 4] [%] | pest or weed control at 70 g/ha [1, 5] [%] | pest or weed control at 140 g/ha [1, 5] [%] | pest or weed control at 70 g/ha [1, 6] [%] | pest or weed control at 140 g/ha [1, 6] [%] | pest or weed control at 70 g/ha [1, 7] [%] | pest or weed control at 140 g/ha [1, 7] [%] | pest or weed control at 70 g/ha [1, 8] [%] | pest or weed control at 140 g/ha [1, 8] [%] | pest or weed control at 70 g/ha [1, 9] [%] | pest or weed control at 140 g/ha [1, 9] [%] | pest or weed control at 70 g/ha [2, 10] [%] | pest or weed control at 140 g/ha [2, 10] [%] | pest or weed control at 70 g/ha [2, 11] [%] | pest or weed control at 140 g/ha [2, 11] [%] | pest or weed control at 70 g/ha [2, 12] [%] | pest or weed control at 140 g/ha [2, 12] [%] | further results
Nc1c(F)c(-c2ccc(Cl)c(Cl)c2Cl)nc(C(=O)O)c1Cl [Compound 10] | 0 to 29 | 0 to 29 | 95 to 100 | 95 to 100 | 95 to 100 | 95 to 100 | 75 to 84 | 75 to 84 | 60 to 74 | 75 to 84 | 0 to 29 | 0 to 29 | 0 to 29 | 0 to 29 | 0 to 29 | 0 to 29 | 0 to 29 | 45 to 59 | 0 to 29 | 0 to 29 | pest or weed control at 70 g/ha [2, 13]: 0 to 29%; pest or weed control at 140 g/ha [2, 13]: 0 to 29%; pest or weed control at 70 g/ha [2, 14]: 0 to 29%; pest or weed control at 140 g/ha [2, 14]: 0 to 29%; pest or weed control at 70 g/ha [2, 15]: 0 to 29%; pest or weed control at 140 g/ha [2, 15]: 0 to 29%; pest or weed control at 70 g/ha [2, 16]: 75 to 84%; pest or weed control at 140 g/ha [2, 16]: 85 to 94%; pest or weed control at 70 g/ha [2, 17]: 60 to 74%; pest or weed control at 140 g/ha [2, 17]: 60 to 74%
Nc1cc(-c2ccc(Cl)c(F)c2CO)nc(C(=O)O)c1Cl [Compound 11, 4-Amino-3-chloro-6-(4-chloro-3-fluoro-2-(hydroxymethyl)phenyl)picolinic acid] | 0 to 29 | 0 to 29 | 0 to 29 | 0 to 29 | 0 to 29 | 0 to 29 | 0 to 29 | 75 to 84 | 0 to 29 | 0 to 29 | 0 to 29 | 0 to 29 | 0 to 29 | 0 to 29 | 0 to 29 | 0 to 29 | 0 to 29 | 0 to 29 | 0 to 29 | 0 to 29 | pest or weed control at 70 g/ha [2, 13]: 0 to 29%; pest or weed control at 140 g/ha [2, 13]: 0 to 29%; pest or weed control at 70 g/ha [2, 14]: 0 to 29%; pest or weed control at 140 g/ha [2, 14]: 0 to 29%; pest or weed control at 70 g/ha [2, 15]: 0 to 29%; pest or weed control at 140 g/ha [2, 15]: 0 to 29%; pest or weed control at 70 g/ha [2, 16]: 0 to 29%; pest or weed control at 140 g/ha [2, 16]: 0 to 29%; pest or weed control at 70 g/ha [2, 17]: 0 to 29%; pest or weed control at 140 g/ha [2, 17]: 0 to 29%
COC(=O)c1nc(-c2ccc(Cl)nc2F)cc(N)c1Cl [Compound 17, methyl 4-amino-5,6′-dichloro-2′-fluoro-[2,3′-bipyridine]-6-carboxylate] | 95 to 100 | 95 to 100 | 95 to 100 | 95 to 100 | 0 to 29 | 30 to 44 | 95 to 100 | 95 to 100 | 0 to 29 | 45 to 59 | 60 to 74 | 75 to 84 | 60 to 74 | 60 to 74 | 60 to 74 | 75 to 84 | 0 to 29 | 0 to 29 | 60 to 74 | 85 to 94 | pest or weed control at 70 g/ha [2, 13]: 0 to 29%; pest or weed control at 140 g/ha [2, 13]: 0 to 29%; pest or weed control at 70 g/ha [2, 14]: 0 to 29%; pest or weed control at 140 g/ha [2, 14]: 0 to 29%; pest or weed control at 70 g/ha [2, 15]: 0 to 29%; pest or weed control at 140 g/ha [2, 15]: 30 to 44%; pest or weed control at 70 g/ha [2, 16]: 0 to 29%; pest or weed control at 140 g/ha [2, 16]: 0 to 29%; pest or weed control at 70 g/ha [2, 17]: 0 to 29%; pest or weed control at 140 g/ha [2, 17]: 30 to 44%
